From patent publication US20140100290A1, “Method of treating a prostate condition” (priority 2012, published 2014) come the findings set out here.

Common to all, as to assay type: cell-based, Human
In assay [1] the test system is cytochrome c release in LNCaP cells. Put plainly: Western blot analysis of cytochrome c release in LNCaP cells. The conditions noted are these: 10 μM and 1000 μM, 48 h. Here is the method:
(§1) Human metastatic prostate cancer cells, LNCaP, were obtained from ATCC (Manassas, Va., USA). Cells were grown in RPMI-1640 medium supplemented with 2mM glutamine, 10% FBS, 100 U/mL penicillin, and 100 μg/mL streptomycin. LNCaP cells were maintained in a humidified atmosphere of 5% CO2 at 37° C. in T-75 flasks and were subcultured when confluent. Experiments were conducted using cells with passage numbers ranging from 5-20.
(§2) Western blotting is a widely used analytical technique for detection of specific proteins separated from one another, according to their size, by gel electrophoresis. Application of an electric current induces proteins on the gel to move on to the membrane (nitrocellulose or PVDF) placed next to it. Proteins on the gel get transferred on to the membrane which is subsequently stained with the antibody. Once detected, the target protein will be visualized as a band on a blotting membrane, X-ray film, or an imaging system. […]
(§3) After maintaining constant agitation at 4° C. for 30 minutes, lysates were collected in microcentrifuge tubes and centrifuged at 12,000 rpm at 4° C. for 20 minutes. […] Protein concentration was determined using the Pierce® BCA protein assay kit. […] Western blot images are representative of at least 3 independent experiments, while quantification data represent mean±S.E.M. of n>3 experiments.
In general terms: Immunoblotting shows a protein as a band on a membrane.

In assay [2] the test system is PARP cleavage in LNCaP cells. Nature of the assay: Western blot analysis of PARP cleavage in LNCaP cells. The conditions noted are these: 48 h treatment. The method, then: as §1, §2, §3
In another assay the test system is PC-3 cells. Put plainly: Phosphatidylserine externalization by fluorescence microscopy (PSVue 480) in PC-3 cells. The conditions noted are these: 10 μM and 1000 μM, 48 hours, dose-dependent. The method, then: Cell Line and Culture Conditions • Human metastatic, androgen insensitive prostate cancer cells, PC-3, were obtained from ATCC (Manassas, Va., USA). Cells were grown in F-12K medium supplemented with 2 mM glutamine, 10% FBS, 100 U/mL penicillin, and 100 μg/mL streptomycin. PC-3 cells were maintained in a humidified atmosphere of 5% CO2 at 37° C. in T-75 flasks and were subcultured when confluent.
One of the earliest events to occur in apoptosis or programmed cell death is externalization of phosphatidylserine (PS), a membrane phospholipid restricted to the inner leaflet of the lipid bilayer. Redistribution of PS from inner leaflet of plasma membrane lipid bilayer to the outer leaflet occurs in cells undergoing apoptosis. The PSVue™ 480 reagent kit was used to perform the phosphatidylserine (PS) externalization assay. The principle behind this assay involves a strong binding of PSVue™ 480 (fluorescent probe) to the anionic PS residues exposed on the surface of apoptotic cells by its Zn (II)-dipicolylamine (Zn-DPA) functionality, making it a useful apoptotic sensor.
To detect PS externalization, PC-3 cells were seeded at a density of 0.5×10^6 cells/well in flat-bottom, 6-well microtiter plates and were allowed to incubate for 24 h. After 24 h of incubation at 37° C., cells were treated with 10 μM and 1000 μM of carvacrol for 48 h. […]

`Cc1ccc(C(C)C)cc1O` [Carvacrol]: the “cytochrome c release (Western blot, densitometry vs solvent control)” value in assay [1] is on record as “dose-dependent increase in cytochrome c release”. Besides, in assay [2], the “cleavage of PARP (Western blot)” value is “demonstrated cleavage of PARP”. In the assay on PC-3 cells, the “externalization of phosphatidylserine residues (PSVue 480 positive cells)” value is “showed externalization of phosphatidylserine residues”.
